Measurements published in patent publication US8686143B2, “Compounds useful as inhibitors of Janus kinases” (Vertex Pharmaceuticals Incorporated, priority 2007, dated 2014).

Biological target: T1, JAK3 (Homo sapiens, UniProt P52333)
T1 sequence (P52333 1-1124): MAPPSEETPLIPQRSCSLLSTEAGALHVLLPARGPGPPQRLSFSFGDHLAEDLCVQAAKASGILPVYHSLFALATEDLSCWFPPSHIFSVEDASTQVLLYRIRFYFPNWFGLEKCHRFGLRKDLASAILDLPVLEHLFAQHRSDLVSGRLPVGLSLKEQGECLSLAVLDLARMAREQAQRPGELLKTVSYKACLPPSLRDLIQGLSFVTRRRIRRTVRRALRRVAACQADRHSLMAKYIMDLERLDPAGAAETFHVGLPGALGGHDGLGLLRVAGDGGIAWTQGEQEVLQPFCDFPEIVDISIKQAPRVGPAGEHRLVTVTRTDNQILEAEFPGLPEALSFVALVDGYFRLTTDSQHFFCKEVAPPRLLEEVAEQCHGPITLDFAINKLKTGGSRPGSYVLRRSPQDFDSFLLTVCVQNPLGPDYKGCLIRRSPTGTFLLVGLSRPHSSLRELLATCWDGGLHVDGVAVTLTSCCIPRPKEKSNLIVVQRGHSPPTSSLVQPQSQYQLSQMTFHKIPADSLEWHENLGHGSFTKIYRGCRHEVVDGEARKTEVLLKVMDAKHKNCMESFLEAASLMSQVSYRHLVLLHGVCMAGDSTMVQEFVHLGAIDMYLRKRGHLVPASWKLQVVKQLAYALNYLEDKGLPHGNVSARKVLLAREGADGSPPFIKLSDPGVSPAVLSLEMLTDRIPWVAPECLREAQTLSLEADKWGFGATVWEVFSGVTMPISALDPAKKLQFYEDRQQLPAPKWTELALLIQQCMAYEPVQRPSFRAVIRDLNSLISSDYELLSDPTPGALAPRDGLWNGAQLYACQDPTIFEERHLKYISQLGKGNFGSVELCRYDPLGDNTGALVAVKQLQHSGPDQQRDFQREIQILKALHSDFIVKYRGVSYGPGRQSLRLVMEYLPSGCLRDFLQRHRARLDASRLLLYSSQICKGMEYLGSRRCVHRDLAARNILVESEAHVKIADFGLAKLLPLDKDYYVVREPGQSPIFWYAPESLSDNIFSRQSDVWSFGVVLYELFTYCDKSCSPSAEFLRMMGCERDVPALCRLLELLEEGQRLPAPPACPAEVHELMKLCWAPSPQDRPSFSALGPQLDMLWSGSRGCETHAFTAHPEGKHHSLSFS
Test: JAK3 Inhibition Assay (33P incorporation into poly(Glu)4Tyr)
Format: biochemical
Conditions: for Ki: 1 nM JAK3, 5 μM ATP, 1 μM poly(Glu)4Tyr, 25° C.
Procedure: Compounds were screened for their ability to inhibit JAK3 using the assay shown below. Reactions were carried out in a kinase buffer containing 100 mM HEPES (pH 7.4), 1 mM DTT, 10 mM MgCl2, 25 mM NaCl, and 0.01% BSA. Substrate concentrations in the assay were 5 μM ATP (200 uCi/μmole ATP) and 1 μM poly(Glu)4Tyr. Reactions were carried out at 25° C. and 1 nM JAK3.
To each well of a 96 well polycarbonate plate was added 1.5 μl of a candidate JAK3 inhibitor along with 50 μlof kinase buffer containing 2 μM poly(Glu)4Tyr and 10 μM ATP. This was then mixed and 50 μl of kinase buffer containing 2 nM JAK3 enzyme was added to start the reaction. After 20 minutes at room temperature (25° C.), the reaction was stopped with 50 μl of 20% trichloroacetic acid (TCA) that also contained 0.4 mM ATP. The entire contents of each well were then transferred to a 96 well glass fiber filter plate using a TomTek Cell Harvester. After washing, 60 μl of scintillation fluid was added and ^33P incorporation detected on a Perkin Elmer TopCount.

| SMILES | Ki | inhibition of JAK3 at concentrations of 50 μM |
| --- | --- | --- |
| CC(C)[C@@H](Nc1ccnc(-c2c[nH]c(C(=O)NCC3CC3)c2)n1)C(=O)NCC(F)(F)F [Compound 112] | 1 to 10 µM |  |
| CC(C)[C@@H](Nc1ccnc(-c2c[nH]c(C(=O)N3CCCC3)c2)n1)C(=O)NCC(F)(F)F [Compound 113] | 1 to 10 µM |  |
| CC(C)[C@@H](Nc1ccnc(-c2c[nH]c(C(=O)N3CC=CC3)c2)n1)C(=O)NCC(F)(F)F [Compound 114] | ≤ 1 µM |  |
| CNC(=O)c1cc(-c2ncc(F)c(N3CCC[C@@H]3C(=O)NCC(F)(F)F)n2)c[nH]1 [Compound 115] | 10 to 50 µM |  |
| O=C(NCc1ccccc1)c1cc(-c2ncc(F)c(N3CCC[C@@H]3C(=O)NCC(F)(F)F)n2)c[nH]1 [Compound 116] | 10 to 50 µM |  |
| CC(C)NC(=O)c1cc(-c2ncc(F)c(N3CCC[C@@H]3C(=O)NCC(F)(F)F)n2)c[nH]1 [Compound 117] |  | did not inhibit |
| O=C(NCC1CC1)c1cc(-c2ncc(F)c(N3CCC[C@@H]3C(=O)NCC(F)(F)F)n2)c[nH]1 [Compound 118] | 10 to 50 µM |  |
| O=C(NCC(F)(F)F)[C@H]1CCCN1c1nc(-c2c[nH]c(C(=O)N3CCCC3)c2)ncc1F [Compound 119] | 1 to 10 µM |  |
| O=C(NCC(F)(F)F)[C@H]1CCCN1c1nc(-c2c[nH]c(C(=O)N3CC=CC3)c2)ncc1F [Compound 120] | ≤ 1 µM |  |
| O=C(NCc1ccccc1)c1cc(-c2nccc(N3CCC[C@@H]3C(=O)NCC(F)(F)F)n2)c[nH]1 [Compound 121] | 1 to 10 µM |  |
| CC(C)NC(=O)c1cc(-c2nccc(N3CCC[C@@H]3C(=O)NCC(F)(F)F)n2)c[nH]1 [Compound 122] |  | did not inhibit |
| CC(C)(Nc1nc(-c2ccc(O)cc2)ncc1F)C(=O)NCC(F)(F)F [Compound 123] | ≤ 1 µM |  |
| COc1ccc(-c2ncc(F)c(NC(C)(C)C(=O)NCC(F)(F)F)n2)cc1 [Compound 124] |  | did not inhibit |
| CC(C)(Nc1nc(-c2ccc3c(c2)OCCO3)ncc1F)C(=O)NCC(F)(F)F [Compound 125] |  | did not inhibit |
| CC(C)[C@@H](Nc1nc(-c2c[nH]c(C(=O)NC3CC3)c2)ncc1F)C(=O)NCC(F)(F)F [Compound 126] | 10 to 50 µM |  |
| O=C(O)c1cc(-c2ncc(F)c(N3CCC[C@@H]3C(=O)NCC(F)(F)F)n2)c[nH]1 [Compound 127] |  | did not inhibit |
| CC(C)(Nc1ccnc(-c2c[nH]c(C(=O)O)c2)n1)C(=O)NCC(F)(F)F [Compound 128] |  | did not inhibit |
| CN(C)C(=O)c1cc(-c2ncc(F)c(N3CCC[C@@H]3C(=O)NCC(F)(F)F)n2)c[nH]1 [Compound 129] | 10 to 50 µM |  |
| O=C(NCC(F)(F)F)[C@H]1CCCN1c1ccnc(-c2c[nH]c(C(=O)N3CCCC3)c2)n1 [Compound 130] | 1 to 10 µM |  |
| CN(C)C(=O)c1cc(-c2nccc(NC(C)(C)C(=O)NCC(F)(F)F)n2)c[nH]1 [Compound 132] | ≤ 1 µM |  |
| CC(C)(Nc1nc(-c2c[nH]c(C(=O)O)c2)ncc1F)C(=O)NCC(F)(F)F [Compound 133] | 1 to 10 µM |  |
| CC(C)[C@@H](Nc1ccnc(-c2c[nH]c(C(=O)O)c2)n1)C(=O)NCC(F)(F)F [Compound 134] |  | did not inhibit |

Now from value to compound:

| Ki | inhibition of JAK3 at concentrations of 50 μM | SMILES |
| --- | --- | --- |
| 10 to 50 µM |  | CC(C)[C@@H](Nc1ccnc(-c2c[nH]c(=O)c(N)c2)n1)C(=O)NCC(F)(F)F [Compound 135] |
| 1 to 10 µM |  | CC(C)(Nc1ccnc(-c2c[nH]c(=O)c(N)c2)n1)C(=O)NCC(F)(F)F [Compound 136] |
| 10 to 50 µM |  | CC(C)[C@@H](Nc1nc(-c2c[nH]c(=O)c(N)c2)ncc1F)C(=O)NCC(F)(F)F [Compound 137] |
|  | did not inhibit | Nc1cc(-c2ncc(F)c(N3CCC[C@@H]3C(=O)NCC(F)(F)F)n2)c[nH]c1=O [Compound 138] |
| ≤ 1 µM |  | O=C(NCC(F)(F)F)[C@H]1CCCN1c1ccnc(-c2c[nH]c(C(=O)N3CC=CC3)c2)n1 [Compound 139] |
| ≤ 1 µM |  | CC(C)(Nc1nc(-c2ccc3ncsc3c2)ncc1F)C(=O)NCC(F)(F)F [Compound 140] |
| 1 to 10 µM |  | O=C(NCC(F)(F)F)[C@H]1CCCN1c1nc(-c2ccc3ncsc3c2)ncc1F [Compound 141] |
| 10 to 50 µM |  | CC(C)[C@@H](Nc1nc(-c2ccc(O)cc2)ncc1F)C(=O)NCC(F)(F)F [Compound 142] |
|  | did not inhibit | COc1ccc(-c2nccc(N[C@@H](C(=O)NCC(F)(F)F)C(C)C)n2)cc1 [Compound 143] |
| ≤ 1 µM |  | CC(C)(Nc1ccnc(-c2ccc(O)cc2)n1)C(=O)NCC(F)(F)F [Compound 144] |
|  | did not inhibit | COc1ccc(-c2ncc(F)c(N[C@@H](C(=O)NCC(F)(F)F)C(C)C)n2)cc1 [Compound 145] |
|  | did not inhibit | CC(C)[C@@H](Nc1ccnc(-c2ccc3c(c2)OCCO3)n1)C(=O)NCC(F)(F)F [Compound 146] |
| 1 to 10 µM |  | O=C(NCC(F)(F)F)[C@H]1CCCN1c1ccnc(-c2ccc(O)cc2)n1 [Compound 147] |
| ≤ 1 µM |  | CC(C)[C@@H](Nc1ccnc(-c2ccc3ncsc3c2)n1)C(=O)NCC(F)(F)F [Compound 148] |
|  | did not inhibit | COc1ccc(-c2nccc(NC(C)(C)C(=O)NCC(F)(F)F)n2)cc1 [Compound 149] |
|  | did not inhibit | COc1ccc(-c2nccc(N3CCC[C@@H]3C(=O)NCC(F)(F)F)n2)cc1 [Compound 150] |

| Ki | inhibition of JAK3 at concentrations of 50 μM | SMILES |
| --- | --- | --- |
| 10 to 50 µM |  | O=C(NCC(F)(F)F)[C@H]1CCCN1c1nc(-c2ccc(O)cc2)ncc1F [Compound 151] |
|  | did not inhibit | O=C(NCC(F)(F)F)[C@H]1CCCN1c1nc(-c2ccc3c(c2)OCCO3)ncc1F [Compound 153] |
| ≤ 1 µM |  | CC(C)(Nc1ccnc(-c2ccc3ncsc3c2)n1)C(=O)NCC(F)(F)F [Compound 154] |
| ≤ 1 µM |  | O=C(NCC(F)(F)F)[C@H]1CCCN1c1ccnc(-c2ccc3ncsc3c2)n1 [Compound 155] |
| 1 to 10 µM |  | CC(C)(Nc1nc(-c2c[nH]c3ccc(Cl)cc23)ncc1F)C(=O)NCC(F)(F)F [Compound 156] |
|  | did not inhibit | O=C(NCC(F)(F)F)[C@H]1CCCN1c1nc(-c2c[nH]c3ccc(Cl)cc23)ncc1F [Compound 157] |
| 1 to 10 µM |  | CC(C)(Nc1ccnc(-c2c[nH]c3ccc(Cl)cc23)n1)C(=O)NCC(F)(F)F [Compound 158] |
| 10 to 50 µM |  | O=C(NCC(F)(F)F)[C@H]1CCCN1c1ccnc(-c2c[nH]c3ccc(Cl)cc23)n1 [Compound 159] |
|  | did not inhibit | CC(C)[C@@H](Nc1nc(-c2c[nH]c3ccc(Cl)cc23)ncc1F)C(=O)NCC(F)(F)F [Compound 160] |
| 10 to 50 µM |  | CC(C)[C@@H](Nc1ccnc(-c2c[nH]c3ccc(Cl)cc23)n1)C(=O)NCC(F)(F)F [Compound 161] |
| ≤ 1 µM |  | CC(C)(Nc1nc(-c2ccc3nccnc3c2)ncc1F)C(=O)NCC(F)(F)F [Compound 162] |
| ≤ 1 µM |  | CC(C)(Nc1ccnc(-c2ccc3nccnc3c2)n1)C(=O)NCC(F)(F)F [Compound 163] |
| 1 to 10 µM |  | CC(C)[C@@H](Nc1ccnc(-c2ccc3nccnc3c2)n1)C(=O)NCC(F)(F)F [Compound 164] |
| 10 to 50 µM |  | O=C(NCC(F)(F)F)[C@H]1CCCN1c1nc(-c2ccc3nccnc3c2)ncc1F [Compound 165] |
|  | did not inhibit | CC(C)[C@@H](Nc1nc(-c2ccc3c(c2)OCCO3)ncc1F)C(=O)NCC(F)(F)F [Compound 166] |
| 1 to 10 µM |  | CC(C)[C@@H](Nc1ccnc(-c2ccc(O)cc2)n1)C(=O)NCC(F)(F)F [Compound 167] |
